Experimental data published in patent US8846704B2, “Thiopyrimidine-based compounds and uses thereof” (YM Biosciences Austraila Pty Ltd, priority 2007, dated 2014).

What was measured:
[1] = molecular target: T1, BaF3 TELJAK2 cells (BafT_J2) (Homo sapiens, UniProt O60674); assay: Cellular screening, BaF3 TEL:JAK2 cells, Alamar Blue; assay type: cell-based; conditions: 40 hr, read-out: BafT_J2 IC50_nM
T1 construct: fused on or other part: TEL (ETV6) N-terminal part, coding nucleotides 1-487, serves as the oligomerising partner; It is fused through a Sal I site to the JAK2 kinase domain and expressed from pTRE2 in BaF3 cells bearing pTET-off; P41212 (Transcription factor ETV6)
Method in brief: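 Tet-off BaF3 cells carrying a TEL (nt 1-487)–JAK2 kinase-domain fusion, grown factor-independently in DMEM with 10% Tet-approved FBS without WEHI 3B medium. Compounds were diluted to 20 μM in screening plates, and cells (50,000–200,000 cell/mL at 1.1×) were incubated 40 hr at 37 °C, 5% CO2. Alamar Blue was then added for 4-6 hours; read at 544 nm.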

human JAK2 = molecular target: T2, human JAK2 (Homo sapiens, UniProt O60674); assay: Alphascreen tyrosine kinase enzyme assay, JAK2 kinase domain; assay type: biochemical; conditions: read-out: JAK2 IC50_nM
T2 construct: The kinase domain of human JAK2 was amplified; GST (N); made in house; host or cells: Sf9 insect cells (baculovirus)
Method in brief: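 JAK2 kinase domain expressed in baculovirus/Sf9 and glutathione-affinity purified. Compounds (final […]) pre-incubated 20 min with enzyme in 10 mM HEPES pH 7.5, MgCl2, NaCl, vanadate, 0.1% Tween 20.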

human JAK1 = molecular target: T3, human JAK1 (Homo sapiens, UniProt P23458); assay: Alphascreen tyrosine kinase enzyme assay, JAK1 kinase domain; assay type: biochemical; conditions: read-out: JAK1 IC50_nM
T3 construct: The kinase domain of human JAK1 was amplified; GST (N); made in house; host or cells: Sf9 insect cells (baculovirus)

human JAK3 = molecular target: T4, human JAK3 (Homo sapiens, UniProt P52333); assay: Alphascreen tyrosine kinase enzyme assay, JAK3 kinase domain; assay type: biochemical; conditions: read-out: JAK3 IC50_nM
T4 construct: The kinase domain of human JAK3 was amplified; GST (N); made in house; host or cells: Sf9 insect cells (baculovirus)
Method in brief: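 GST-affinity-purified human JAK3 kinase domain (baculovirus/Sf9) was pre-incubated 20 min with compound ([…]) in HEPES pH 7.5 buffer with MgCl2, vanadate and Tween 20. Biotinylated peptide substrate ([…]) and ATP were then added; phosphotyrosine was detected by AlphaScreen PY100 acceptor and streptavidin donor beads after 2–3 h.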

T2 sequence (O60674 849-1124 limits assumed): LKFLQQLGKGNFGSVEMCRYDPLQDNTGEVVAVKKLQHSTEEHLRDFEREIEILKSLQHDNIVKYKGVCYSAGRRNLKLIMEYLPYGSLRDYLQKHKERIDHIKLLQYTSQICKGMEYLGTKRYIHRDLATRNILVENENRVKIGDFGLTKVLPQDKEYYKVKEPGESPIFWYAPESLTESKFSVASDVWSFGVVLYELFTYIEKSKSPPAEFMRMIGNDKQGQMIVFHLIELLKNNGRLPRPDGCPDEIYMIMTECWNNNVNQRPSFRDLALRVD
T3 sequence (P23458 875-1153 limits assumed): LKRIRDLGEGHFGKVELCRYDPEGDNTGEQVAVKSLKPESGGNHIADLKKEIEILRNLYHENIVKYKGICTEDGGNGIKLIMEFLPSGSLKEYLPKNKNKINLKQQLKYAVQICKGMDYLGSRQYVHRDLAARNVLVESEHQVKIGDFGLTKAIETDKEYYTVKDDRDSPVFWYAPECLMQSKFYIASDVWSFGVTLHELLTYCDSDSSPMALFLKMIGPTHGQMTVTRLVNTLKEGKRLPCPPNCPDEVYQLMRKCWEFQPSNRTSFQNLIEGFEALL
T4 sequence (P52333 822-1111 limits assumed): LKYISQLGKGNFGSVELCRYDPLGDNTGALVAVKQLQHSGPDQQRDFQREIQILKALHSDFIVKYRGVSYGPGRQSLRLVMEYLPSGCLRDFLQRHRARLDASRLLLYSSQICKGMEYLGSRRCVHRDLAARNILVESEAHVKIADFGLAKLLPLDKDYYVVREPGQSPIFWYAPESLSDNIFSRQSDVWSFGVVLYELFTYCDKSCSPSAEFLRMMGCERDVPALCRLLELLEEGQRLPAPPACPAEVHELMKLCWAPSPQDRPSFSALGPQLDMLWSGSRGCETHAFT
T1 sequence (O60674 whole entry, change not shown, the tested form may be a part): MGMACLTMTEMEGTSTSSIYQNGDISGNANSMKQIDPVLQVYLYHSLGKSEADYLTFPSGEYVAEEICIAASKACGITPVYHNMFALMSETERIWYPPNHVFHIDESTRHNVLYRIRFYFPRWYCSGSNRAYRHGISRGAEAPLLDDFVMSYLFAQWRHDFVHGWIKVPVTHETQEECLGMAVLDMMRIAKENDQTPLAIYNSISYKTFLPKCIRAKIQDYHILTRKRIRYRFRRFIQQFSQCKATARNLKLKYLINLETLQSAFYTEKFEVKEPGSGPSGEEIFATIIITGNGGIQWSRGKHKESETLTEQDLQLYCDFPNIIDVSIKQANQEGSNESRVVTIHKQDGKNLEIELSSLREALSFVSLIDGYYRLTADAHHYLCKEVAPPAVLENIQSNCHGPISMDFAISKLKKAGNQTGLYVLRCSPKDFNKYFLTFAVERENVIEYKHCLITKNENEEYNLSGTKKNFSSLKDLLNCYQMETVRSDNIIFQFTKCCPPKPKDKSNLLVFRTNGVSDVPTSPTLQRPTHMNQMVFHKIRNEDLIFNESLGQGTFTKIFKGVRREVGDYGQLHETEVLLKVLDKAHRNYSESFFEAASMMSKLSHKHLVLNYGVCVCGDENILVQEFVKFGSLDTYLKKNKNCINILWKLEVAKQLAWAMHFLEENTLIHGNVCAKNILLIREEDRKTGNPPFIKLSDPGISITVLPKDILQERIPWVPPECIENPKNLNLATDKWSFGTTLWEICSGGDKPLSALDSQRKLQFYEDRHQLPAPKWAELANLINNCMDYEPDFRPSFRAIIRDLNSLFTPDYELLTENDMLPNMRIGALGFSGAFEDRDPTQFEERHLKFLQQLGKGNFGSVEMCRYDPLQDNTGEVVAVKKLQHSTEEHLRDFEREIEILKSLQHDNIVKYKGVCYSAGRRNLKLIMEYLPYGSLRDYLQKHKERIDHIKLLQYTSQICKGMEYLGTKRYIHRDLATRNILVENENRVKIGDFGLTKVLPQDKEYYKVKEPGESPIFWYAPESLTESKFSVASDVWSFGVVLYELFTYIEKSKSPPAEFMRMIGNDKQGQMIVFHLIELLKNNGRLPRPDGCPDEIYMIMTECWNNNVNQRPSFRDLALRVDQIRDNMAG

SMILES: Cc1cnc(Nc2cccc(O)c2)nc1Sc1ccc(NC(=O)CCl)cc1 [Compound 194, 2-chloro-N-(4-(2-(3-hydroxyphenylao)-5-methylpyrimidin-4-ylthio)phenyl)acetamide]
- GI50 [1]: < 5000 nM
- IC50 (human JAK2): > 1000 nM
- IC50 (human JAK1): > 1000 nM
- IC50 (human JAK3): < 100 nM

SMILES: Cc1cnc(Nc2ccc(N3CCOCC3)cc2)nc1Sc1ccc(NC(=O)CSCC(=O)O)cc1 [Compound 230, 2-(2-(4-(5-methyl-2-(4-morpholinophenylao)pyrimidin-4-ylthio)phenylao)-2-oxoethylthio)acetic acid]
- GI50 [1]: > 20000 nM
- IC50 (human JAK2): < 500 nM
- IC50 (human JAK1): < 1000 nM
- IC50 (human JAK3): < 100 nM

SMILES: C=CC(=O)Nc1cccc(Sc2ccnc(Nc3cccc(N4CCOCC4)c3)n2)c1 [Compound 110, N-(3-(2-(3-morpholinophenylao)pyrimidin-4-ylthio)phenyl)acrylamide]
- GI50 [1]: < 20000 nM
- IC50 (human JAK2): > 1000 nM
- IC50 (human JAK1): > 1000 nM
- IC50 (human JAK3): < 100 nM

SMILES: Cc1cnc(Nc2ccc(N3CCOCC3)cc2)nc1Sc1c(C)cc(N)cc1C [Compound 165, 4-(4-ao-2,6-dimethylphenylthio)-5-methyl-N-(4-morpholinophenyl)pyrimidin-2-ae]
- GI50 [1]: > 20000 nM
- IC50 (human JAK2): > 1000 nM
- IC50 (human JAK1): > 1000 nM
- IC50 (human JAK3): < 500 nM

SMILES: C=CC(=O)Nc1ccc(Sc2ccnc(Nc3ccc(N4CCOCC4)cc3)n2)cc1 [Compound 25, N-(4-(2-(4-morpholinophenylamino)pyrimidin-4-ylthio)phenyl)acrylamide]
- GI50 [1]: > 20000 nM
- IC50 (human JAK2): > 1000 nM
- IC50 (human JAK1): > 1000 nM
- IC50 (human JAK3): < 100 nM

SMILES: Cc1cnc(Nc2ccc(N3CCOCC3)cc2)nc1Sc1ccc(N2C(=O)CSCC2=O)cc1 [Compound 231, 4-(4-(5-methyl-2-(4-morpholinophenylao)pyrimidin-4-ylthio)phenyl)thiomorpholine-3,5-dione]
- GI50 [1]: < 20000 nM
- IC50 (human JAK2): > 1000 nM
- IC50 (human JAK1): > 1000 nM
- IC50 (human JAK3): < 100 nM

SMILES: N#Cc1ncn(Cc2ccc(Sc3ccnc(Nc4ccc(N5CCOCC5)cc4)n3)cc2)c1C#N [Compound 201, 1-(4-(2-(4-morpholinophenylao)pyrimidin-4-ylthio)benzyl)-1H-imidazole-4,5-dicarbonitrile]
- GI50 [1]: < 5000 nM
- IC50 (human JAK2): > 1000 nM
- IC50 (human JAK1): > 1000 nM
- IC50 (human JAK3): < 100 nM

SMILES: CNC(=O)/C=C\C(=O)Nc1ccc(Sc2nc(Nc3ccc(N4CCOCC4)cc3)ncc2C)cc1 [Compound 389, N1-methyl-N4-(4-(5-methyl-2-(4-morpholinophenylao)pyrimidin-4-ylthio)phenyl)maleamide]
- GI50 [1]: < 20000 nM
- IC50 (human JAK2): > 1000 nM
- IC50 (human JAK1): > 1000 nM
- IC50 (human JAK3): < 100 nM

SMILES: C=CC(=O)Nc1ccc(Sc2nc(Nc3ccc(N4CCOCC4)cc3)ncc2F)cc1 [Compound 268, N-(4-(5-fluoro-2-(4-morpholinophenylao)pyrimidin-4-ylthio)phenyl)acrylamide]
- GI50 [1]: > 20000 nM
- IC50 (human JAK2): > 1000 nM
- IC50 (human JAK1): > 1000 nM
- IC50 (human JAK3): < 100 nM

SMILES: C=CC(=O)Nc1cccc(Sc2ccnc(Nc3ccc(N4CCOCC4)cc3)n2)c1 [Compound 23, N-(3-(2-(4-morpholinophenylamino)pyrimidin-4-ylthio)phenyl)acrylamide]
- GI50 [1]: < 20000 nM
- IC50 (human JAK2): > 1000 nM
- IC50 (human JAK1): > 1000 nM
- IC50 (human JAK3): < 100 nM

SMILES: C=CC(=O)Nc1ccc(Sc2nc(Nc3cccc(CO)c3)ncc2C)cc1 [Compound 280, N-(4-(2-(3-(hydroxymethyl)phenylao)-5-methylpyrimidin-4-ylthio)phenyl)acrylamide]
- GI50 [1]: < 20000 nM
- IC50 (human JAK2): > 1000 nM
- IC50 (human JAK1): > 1000 nM
- IC50 (human JAK3): < 100 nM

SMILES: C=CC(=O)Nc1ccc(Sc2ccnc(Nc3cc(C)cc(C)c3)n2)cc1 [Compound 82, N-(4-(2-(3,5-dimethylphenylao)pyrimidin-4-ylthio)phenyl)acrylamide]
- GI50 [1]: < 5000 nM
- IC50 (human JAK2): > 1000 nM
- IC50 (human JAK1): > 1000 nM
- IC50 (human JAK3): < 100 nM

SMILES: C=CC(=O)Nc1ccc(Sc2nc(Nc3cccc(N4CCOCC4)c3)ncc2F)cc1 [Compound 267, N-(4-(5-fluoro-2-(3-morpholinophenylao)pyrimidin-4-ylthio)phenyl)acrylamide]
- GI50 [1]: < 5000 nM
- IC50 (human JAK2): > 1000 nM
- IC50 (human JAK1): > 1000 nM
- IC50 (human JAK3): < 100 nM

SMILES: Cc1cnc(Nc2ccc(N3CCOCC3)cc2)nc1Sc1ccc(N2C(=O)C=C(Br)C2=O)cc1 [Compound 382, 3-bromo-1-(4-(5-methyl-2-(4-morpholinophenylao)pyrimidin-4-ylthio)phenyl)-1H-pyrrole-2,5-dione]
- GI50 [1]: < 20000 nM
- IC50 (human JAK2): > 1000 nM
- IC50 (human JAK1): > 1000 nM
- IC50 (human JAK3): < 100 nM

SMILES: OCc1cccc(Sc2ccnc(Nc3ccc(N4CCOCC4)cc3)n2)c1 [Compound 62, (3-(2-(4-Morpholinophenylamino)pyrimidin-4-ylthio)phenyl)methanol]
- GI50 [1]: < 20000 nM
- IC50 (human JAK2): < 500 nM
- IC50 (human JAK1): > 1000 nM
- IC50 (human JAK3): < 500 nM

SMILES: C=CC(=O)Nc1ccc(Sc2nc(Nc3cccc(NS(C)(=O)=O)c3)ncc2C)cc1 [Compound 288, N-(4-(5-methyl-2-(3-(methylsulfonamido)phenylao)pyrimidin-4-ylthio)phenyl)acrylamide]
- GI50 [1]: < 20000 nM
- IC50 (human JAK2): > 1000 nM
- IC50 (human JAK1): > 1000 nM
- IC50 (human JAK3): < 100 nM

SMILES: C=CC(=O)Nc1ccc(Sc2nc(Nc3ccc(N4CCN(C)CC4)cc3)ncc2C)cc1 [Compound 239, N-(4-(5-methyl-2-(4-(4-methylpiperazin-1-yl)phenylao)pyrimidin-4-ylthio)phenyl)acrylamide]
- GI50 [1]: < 5000 nM
- IC50 (human JAK2): < 1000 nM
- IC50 (human JAK1): < 500 nM
- IC50 (human JAK3): < 100 nM

SMILES: C=CC(=O)Nc1ccc(Sc2nc(Nc3ccc(C4CCN(C)CC4)cc3)ncc2C)cc1 [Compound 246, N-(4-(5-methyl-2-(4-(1-methylpiperidin-4-yl)phenylao)pyrimidin-4-ylthio)phenyl)acrylamide]
- GI50 [1]: < 5000 nM
- IC50 (human JAK2): > 1000 nM
- IC50 (human JAK1): > 1000 nM
- IC50 (human JAK3): < 100 nM
